“And” between values parts separate entries of the source, which are not always exact repeats. Equal values may be shown once. The source made the active and inactive calls.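 Rule for the calls: active = IC50 no higher than ten times the top tested dose; inconclusive = flat fit with 30 to 70% inhibition, or poor fit; inactive = IC50 above ten times the top dose.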

The test relates to Clostridium difficile clinical isolate growth, OD600, 24 h. Briefly: growth modulation of Clostridium difficile isolate – OD600, 9-point, retest, dose response (AID 1224920).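 Note: inhibitors lower culture turbidity so OD600 falls.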

`CC(C)CC#Cc1ccc([C@@H]2[C@H](CO)N3CCCCN(C(=O)Nc4ccccc4)C[C@@H]23)cc1`: the IC50 (usually the midpoint of a concentration-inhibition curve) was 13.1 µM.

As for `Cc1cccc(-c2ccc(C3[C@@H]4CN(C(=O)Nc5ccc(F)cc5)C[C@H]3N4)cc2)c1` (some centres not stated), the half-inhibitory concentration (IC50) is 12.2 µM.

Take `Fc1ccc(-c2ccc(C3[C@@H]4CN(Cc5ccccc5)C[C@H]3N4)cc2)cc1` (some centres not stated): the half-inhibitory concentration (IC50) is 5.92 µM and 31.9 µM.

For the compound `OC[C@H]1[C@@H](c2ccc(-c3cccc(F)c3)cc2)[C@@H]2CN(CCC(F)(F)F)CCCCN12`, the IC50 was 53.8 µM.

Regarding `O=C(Nc1ccc(F)cc1)N1CCCCN2[C@H](CO)[C@@H](c3ccc(-c4cccc(F)c4)cc3)[C@H]2C1`, the half-maximal inhibitory concentration (IC50) was 92.2 µM.

Take `COc1ccc(-c2ccc(C3[C@H]4CNC[C@@H]3N4C(=O)Nc3ccc(C(F)(F)F)cc3)cc2)cc1` (some centres not stated): the IC50 is 65.7 µM and 10.6 µM.

On to `Cc1ccc(-c2ccc([C@H]3[C@@H](CO)N4CCCCN(C(=O)c5ccc(F)cc5)C[C@H]34)cc2)cc1`, for which the concentration for half-maximal inhibition (IC50) is 30.7 µM.

Take `O=C(c1ccc2c(c1)OCO2)N1C[C@@H]2N[C@H](C1)C2c1ccc(/C=C/c2ccccc2)cc1` (some centres not stated): the IC50 was 12.4 µM.

Regarding `Cc1ccccc1-c1ccc(C2[C@@H]3CN(S(=O)(=O)c4ccccc4C)C[C@H]2N3)cc1` (some centres not stated), the IC50 was 27.5 µM.

For the compound `COc1ccc(-c2ccc(C3[C@H]4CNC[C@@H]3N4Cc3cc(OC)cc(OC)c3)cc2)cc1` (some centres not stated), the IC50 is 11.1 µM.

On to `Cc1ccc(-c2ccc(C3[C@H]4CNC[C@@H]3N4C(=O)Nc3ccc(F)cc3)cc2)cc1` (some centres not stated), for which the IC50 was 64.4 µM.

`COc1ccc(C#Cc2ccc([C@H]3[C@H](CO)N4CCCCN(C(=O)Nc5cccc(F)c5)C[C@@H]34)cc2)cc1`: the half-maximal inhibitory concentration (IC50) was 20.9 µM.

`O=C(C[C@H]1CC[C@@H]2[C@H](COC[C@@H](O)CN2C(=O)Nc2ccc(Cl)c(Cl)c2)O1)NCc1ccncc1`: the concentration for half-maximal inhibition (IC50) was 8.71 µM.

Take `CCCNC(=O)C[C@@H]1CC[C@@H]2[C@H](COC[C@H](O)CN2C(=O)Nc2ccc(Cl)c(Cl)c2)O1`: the 50% inhibitory concentration (IC50) is 12 µM.

As to `O=C(C1CCCC1)N1C[C@@H]2N[C@H](C1)C2c1ccc(/C=C/c2ccccc2)cc1` (some centres not stated), the IC50 was 30.1 µM.

Regarding `OC[C@@H]1[C@H](c2ccc(C#CC3CCCC3)cc2)[C@H]2CN(CCC(F)(F)F)CCCCN12`, the IC50 was 26.6 µM.

With `OC[C@H]1Nc2ccc(-c3ccc(F)cc3)cc2[C@H]2[C@@H]1CCN2Cc1ccc(F)cc1`, the IC50 was 44.3 µM.

Consider `COc1cccc(-c2ccc(C3[C@H]4CNC[C@@H]3N4Cc3ccc(F)cc3)cc2)c1` (some centres not stated), for which the IC50 was 11.9 µM.

For the compound `CCCC#Cc1ccc([C@H]2[C@H](CO)N3CCCCN(S(=O)(=O)c4ccccc4C)C[C@@H]23)cc1`, the IC50 was > 240 µM (inactive).

Consider `COc1ccccc1CN1C[C@@H]2N[C@H](C1)C2c1ccc(-c2ccccc2OC)cc1` (some centres not stated), for which the IC50 was 35.3 µM and 38.3 µM.

With `Fc1cccc(-c2ccc(C3[C@@H]4CN(Cc5ccccc5F)C[C@H]3N4)cc2)c1` (some centres not stated), the 50% inhibitory concentration (IC50) was 6.44 µM and 6.35 µM.

`CCNC(=O)C[C@@H]1CC[C@H]2[C@@H](COC[C@@H](O)CN2C(=O)Nc2ccc(C(F)(F)F)cc2)O1`: the IC50 was 12.2 µM.

Take `Cc1ccccc1-c1ccc(C2[C@@H]3CN(C(=O)C4CCCCC4)C[C@H]2N3)cc1` (some centres not stated): the IC50 was 60.7 µM.

Consider `O=C(Nc1ccccc1)N1CCCCN2[C@H](CO)[C@H](c3ccc(C#Cc4ccccc4)cc3)[C@H]2C1`, for which the IC50 was 9.4 µM.

In the case of `COc1ccccc1NC(=O)N1CCCCN2[C@H](CO)[C@H](c3ccc(-c4cccc(C)c4)cc3)[C@H]2C1`, the half-inhibitory concentration (IC50) was 10.3 µM.

Consider `COc1ccccc1-c1ccc(C2[C@@H]3CN(S(=O)(=O)c4ccccc4C)C[C@H]2N3)cc1` (some centres not stated), for which the IC50 was 28.1 µM.

On to `COc1ccccc1CN1C[C@@H]2N[C@H](C1)C2c1ccc(/C=C/c2ccccc2)cc1` (some centres not stated), for which the IC50 was 3.7 µM and 19 µM.

Consider `O=C(c1cnccn1)N1CC(=O)N2[C@H](C1)[C@@H](c1ccc(C#CCc3ccccc3)cc1)[C@@H]2CO`, for which the IC50 is > 240 µM (inactive).

Consider `OC[C@@H]1Nc2ccc(C#Cc3ccc(F)cc3)cc2[C@H]2NCC[C@@H]12`, for which the IC50 is 59.4 µM.

For the compound `Fc1cccc(CN2C[C@@H]3N[C@H](C2)C3c2ccc(/C=C/c3ccccc3)cc2)c1` (some centres not stated), the half-inhibitory concentration (IC50) was 1.8 µM and 4.45 µM.

For `O=C(Nc1ccccc1)N1C[C@@H]2N[C@H](C1)[C@@H]2c1ccc(/C=C/c2ccccc2)cc1`, the half-inhibitory concentration (IC50) is 13 µM.

Regarding `CCCNC(=O)C[C@H]1CC[C@@H]2[C@H](COC[C@@H](O)CN2C(=O)Nc2ccc(Cl)c(Cl)c2)O1`, the half-maximal inhibitory concentration (IC50) was 20.9 µM.

Turning to `O=S(=O)(c1ccc(F)cc1)N1C[C@@H]2N[C@H](C1)C2c1ccc(-c2ccc(F)cc2)cc1` (some centres not stated), the half-maximal inhibitory concentration (IC50) is 128 µM.

`O=C(C1CCCCC1)N1C[C@@H]2N[C@H](C1)C2c1ccc(-c2ccccc2F)cc1` (some centres not stated): the IC50 was 55.9 µM.

Take `COc1ccc(S(=O)(=O)N2CCCCN3[C@@H](CO)[C@@H](c4ccc(C#CCC(C)C)cc4)[C@@H]3C2)cc1`: the IC50 is 13.6 µM.

`O=C(C[C@H]1CC[C@@H]2[C@H](COC[C@H](O)CN2C(=O)Nc2ccc(C(F)(F)F)cc2)O1)NC1Cc2ccccc2C1`: the IC50 is 36.6 µM.

Regarding `COc1cccc(C#Cc2ccc3c(c2)[C@@H]2[C@@H](CCN2C(=O)c2ccccc2F)[C@@H](CO)N3C)c1`, the IC50 was 27.7 µM.

For the compound `OC[C@@H]1[C@H](c2ccc(-c3ccccc3)cc2)[C@@H]2CN(CCC(F)(F)F)CCCCN12`, the concentration for half-maximal inhibition (IC50) is 56.6 µM.

With `O=C(NC1CCCCC1)N1C[C@@H]2N[C@H](C1)C2c1ccc(-c2ccc(F)cc2)cc1` (some centres not stated), the half-inhibitory concentration (IC50) is 59.7 µM.

In the case of `Cc1ccc(-c2ccc([C@@H]3[C@@H](CO)N4CCCCN(S(=O)(=O)c5cccc(C)c5)C[C@H]34)cc2)cc1`, the concentration for half-maximal inhibition (IC50) was 10.7 µM.

For the compound `COc1cccc(-c2ccc(C3[C@H]4CNC[C@@H]3N4Cc3cc(F)ccc3F)cc2)c1` (some centres not stated), the IC50 is 30 µM.

On to `CCNC(=O)C[C@H]1CC[C@H]2[C@@H](COC[C@@H](O)CN2C(=O)Nc2ccc(C(F)(F)F)cc2)O1`, for which the 50% inhibitory concentration (IC50) was 8.27 µM.

With `N#Cc1ccc(-c2ccc([C@@H]3[C@H]4CNC[C@@H]3N4Cc3ccc4c(c3)OCO4)cc2)cc1`, the IC50 is 102 µM.

Regarding `OC[C@@H]1Nc2ccc(C#Cc3cccc(F)c3)cc2[C@H]2NCC[C@@H]12`, the IC50 was 38.3 µM.

As to `Fc1cccc(-c2ccc([C@@H]3[C@@H]4CN(Cc5nccs5)C[C@H]3N4)cc2)c1`, the half-inhibitory concentration (IC50) is 66.3 µM.

`Cc1cccc(S(=O)(=O)N2C[C@@H]3N[C@H](C2)C3c2ccc(-c3ccccc3F)cc2)c1` (some centres not stated): the concentration for half-maximal inhibition (IC50) is 11.3 µM.

As for `N#C[C@@H]1[C@@H](c2ccc(C#Cc3cccnc3)cc2)[C@@H](CO)N1C(=O)NC1CCCC1`, the IC50 is > 240 µM (inactive).

For `COc1cc(CN2C[C@@H]3N[C@H](C2)C3c2ccc(-c3ccc(C#N)cc3)cc2)cc(OC)c1` (some centres not stated), the IC50 was 38.7 µM.

With `Cc1ccccc1-c1ccc(C2[C@@H]3CN(S(=O)(=O)c4ccccc4)C[C@H]2N3)cc1` (some centres not stated), the IC50 is 56.1 µM.

Take `O=C(c1ccccc1)N1CC[C@@H]2[C@H]1c1cc(-c3ccc(F)cc3)ccc1N[C@@H]2CO`: the 50% inhibitory concentration (IC50) was 129 µM.

For `Cc1ccc(-c2ccc([C@@H]3[C@H](CO)N4CCCCN(C(=O)Nc5cccc(F)c5)C[C@@H]34)cc2)cc1`, the concentration for half-maximal inhibition (IC50) was 6.52 µM.

Regarding `O=C(Nc1ccc(F)cc1)N1[C@@H]2CNC[C@H]1C2c1ccc(-c2ccccc2)cc1` (some centres not stated), the IC50 is 83.6 µM.

Turning to `Cc1ccccc1-c1ccc(C2[C@@H]3CN(C(=O)Cc4ccccc4)C[C@H]2N3)cc1` (some centres not stated), the IC50 was 62.1 µM and 68.3 µM.

As for `Fc1ccc(-c2ccc(C3[C@@H]4CN(Cc5nccs5)C[C@H]3N4)cc2)cc1` (some centres not stated), the IC50 was 63 µM.

`O=C(Nc1cccc(F)c1)N1C[C@@H]2N[C@H](C1)C2c1ccc(-c2ccc(F)cc2)cc1` (some centres not stated): the IC50 is 51.8 µM.

On to `COc1ccc(-c2ccc(C3[C@@H]4CN(C(=O)Nc5cccc(F)c5)C[C@H]3N4)cc2)cc1` (some centres not stated), for which the IC50 was 26 µM.

With `Cc1ccccc1S(=O)(=O)N1CCCCN2[C@H](CO)[C@H](c3ccc(-c4cccc(F)c4)cc3)[C@H]2C1`, the IC50 is 11.3 µM.

`O=C(Nc1ccc(C(F)(F)F)cc1)N1[C@@H]2CNC[C@H]1C2c1ccc(-c2ccccc2)cc1` (some centres not stated): the IC50 was 18.2 µM and 28.6 µM.

Turning to `O=C(NC[C@@H]1N[C@@H](CO)[C@H]1c1ccc(C2=CCCCC2)cc1)c1cccc(F)c1`, the IC50 is 11.2 µM.

As for `CC(C)CC#Cc1ccc([C@H]2[C@H](CO)N3CCCCN(C(=O)Nc4ccccc4)C[C@@H]23)cc1`, the IC50 was 11.1 µM.

On to `N#Cc1cccc(-c2ccc(C3[C@@H]4CN(Cc5ccccc5F)C[C@H]3N4)cc2)c1` (some centres not stated), for which the IC50 is 28.6 µM and 26.1 µM.

Regarding `O=C(C[C@H]1CC[C@H]2[C@@H](COC[C@@H](O)CN2C(=O)Nc2ccc(C(F)(F)F)cc2)O1)NCC1CCCCC1`, the half-maximal inhibitory concentration (IC50) is 6.01 µM.

For `N#Cc1ccc(-c2ccc(C3[C@@H]4CN(C(=O)Nc5ccc(C(F)(F)F)cc5)C[C@H]3N4)cc2)cc1` (some centres not stated), the IC50 was 29.7 µM.

For `O=C(C[C@H]1CC[C@H]2[C@@H](COC[C@H](O)CN2C(=O)Nc2ccc(C(F)(F)F)cc2)O1)NCC1CCCCC1`, the IC50 is 7.15 µM.

Take `O=C(Nc1ccccc1)N1C[C@@H]2N[C@H](C1)C2c1ccc(-c2ccccc2)cc1` (some centres not stated): the 50% inhibitory concentration (IC50) is 59.7 µM.

As to `C(=C\c1ccc(C2[C@@H]3CN(Cc4nccs4)C[C@H]2N3)cc1)/c1ccccc1` (some centres not stated), the IC50 was 16.7 µM and 67.5 µM.

With `Cc1ccccc1S(=O)(=O)N1C[C@@H]2N[C@H](C1)C2c1ccc(-c2cccc(C#N)c2)cc1` (some centres not stated), the IC50 is 91.2 µM.

For `O=C(Nc1cccc(F)c1)N1C[C@@H]2N[C@H](C1)C2c1ccc(-c2ccccc2F)cc1` (some centres not stated), the half-inhibitory concentration (IC50) is 27 µM and 65.3 µM.

As to `O=C(C[C@@H]1CC[C@H]2[C@@H](COC[C@@H](O)CN2C(=O)Nc2ccc(Cl)c(Cl)c2)O1)NC1CCC1`, the IC50 was 8 µM.

As for `Cc1ccc(-c2ccc([C@H]3[C@@H](CO)N4CCCCN(C(=O)Nc5cccc(F)c5)C[C@H]34)cc2)cc1`, the IC50 was 4.44 µM.

In the case of `Cc1cccc(-c2ccc([C@H]3[C@@H](CO)N4CCCCN(CCC(F)(F)F)C[C@@H]34)cc2)c1`, the IC50 was 50.5 µM.

For the compound `O=C(NC[C@H]1N[C@H](CO)[C@@H]1c1ccc(C2=CCCCC2)cc1)c1cccc(F)c1`, the concentration for half-maximal inhibition (IC50) is 58.8 µM.

Turning to `Cc1ccc(S(=O)(=O)N2[C@@H]3CNC[C@H]2C3c2ccc(-c3cccc(C)c3)cc2)cc1` (some centres not stated), the IC50 is 32.1 µM.

Regarding `O=C(Nc1ccc(C(F)(F)F)cc1)N1[C@@H]2CNC[C@H]1C2c1ccc(-c2ccc(F)cc2)cc1` (some centres not stated), the half-maximal inhibitory concentration (IC50) is 13.9 µM.

For `O=C(Nc1cccc(F)c1)N1CCCCN2[C@H](CO)[C@H](c3ccc(-c4ccccc4F)cc3)[C@H]2C1`, the IC50 is 24.5 µM.

In the case of `Cc1ccccc1-c1ccc(C2[C@@H]3CN(Cc4cocn4)C[C@H]2N3)cc1` (some centres not stated), the IC50 is 45.5 µM.

On to `O=C(Nc1ccc(F)cc1)N1[C@@H]2CNC[C@H]1C2c1ccc(/C=C/c2ccccc2)cc1` (some centres not stated), for which the IC50 is 13.8 µM.

(Values after PubChem BioAssay AID1224920 (Broad Institute, 2016).)
